Source: PubChem BioAssay (NCI)
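Briefly, cells in 96-well plates were exposed to five compound concentrations for 48 h, and endpoints were estimated by linear interpolation. GI50: concentration for 50% inhibition of growth. TGI marks complete inhibition of growth.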

Legend:
Test in all cases: inhibition of tumour cell growth, NCI panel, 48 h
[1] = test system: HL-60(TB) leukemia
[2] = test system: RPMI-8226 leukemia
[3] = test system: SK-MEL-28 melanoma
[4] = test system: COLO 205 colon
[5] = test system: HOP-62 NSCLC
[6] = test system: OVCAR-3 ovarian
[7] = test system: OVCAR-5 ovarian
[8] = test system: HT29 colon
[9] = test system: CAKI-1 renal

| SMILES | TGI [1] [µM] | TGI [2] [µM] | TGI [3] [µM] | TGI [4] [µM] | TGI [5] [µM] | TGI [6] [µM] | TGI [7] [µM] | TGI [8] [µM] | TGI [9] [µM] | GI50 [1] [µM] | GI50 [2] [µM] | GI50 [3] [µM] | GI50 [4] [µM] | GI50 [5] [µM] | GI50 [6] [µM] | GI50 [7] [µM] | GI50 [8] [µM] | GI50 [9] [µM] |
| --- | --- | --- | --- | --- | --- | --- | --- | --- | --- | --- | --- | --- | --- | --- | --- | --- | --- | --- |
| CC(C)(C)[Si](C)(C)OC[C@H](/C=C\CCCC(=O)O)NC1(c2ccccc2)c2ccccc2-c2ccccc21 | 37 | 23.3 | 33 | 26.5 | 42.3 | 36.1 | 76.6 | 47.6 | 93.9 |  |  |  |  |  |  |  |  |  |
| COc1cc(/C=N/NC2=NCCN2)ccc1O | > 100 | > 100 | > 100 | > 100 | > 100 | > 100 | > 100 | > 100 |  |  |  |  |  |  |  |  |  |  |
| O=[N+]([O-])/C(C(Cl)=C(Cl)Cl)=C(/Nc1ccccc1)Sc1ccccc1 | 42.4 | 66.1 | 36 | 34.8 | 62 | 30.1 |  | 48.7 | 29.5 |  |  |  |  |  |  |  |  |  |
| Cc1cc2ccc(N)nc2[nH]c1=O | > 100 | > 100 |  | > 100 |  |  | > 100 | > 100 | > 100 |  |  |  |  |  |  |  |  |  |
| CCCCC[C@H]1CCCCCCCCCC(=O)OC2C(O[C@@H]3OC(C)[C@H](OC(=O)[C@@H](C)CC)C(O[C@@H]4OC(C)[C@H](O)C(O)[C@@H]4O)[C@@H]3OC(=O)[C@H](C)CC)[C@H](OC3C(O)[C@@H](O)C(C)O[C@H]3O1)OC(CO)[C@H]2O (some centres not stated) | 35.9 | 30.5 | 30.9 | 25 | 32.8 | 32 | 30.6 | 30.3 | 31.7 |  |  |  |  |  |  |  |  |  |
| Nc1cc2c3c(cccc3c1)C(=O)N(c1ccc(OCCN3CCCC3)cc1)C2=O |  | 56.3 | 47 | 35.2 | 29.7 | 29.7 | 46.3 | 29.8 | > 61.5 |  |  |  |  |  |  |  |  |  |
| CCCCCCCCCCCCO[P+](=O)OCCCCCCCCCCCC | > 100 | > 100 | > 100 | > 100 | > 100 | > 100 | > 100 | > 100 |  |  |  |  |  |  |  |  |  |  |
| C(#Cc1ccccc1)SC1=C(c2ccccc2)S/C(=C(\SC#Cc2ccccc2)c2ccccc2)S1 |  |  | > 100 | > 100 | > 100 | > 100 | > 100 | > 100 | > 100 |  |  |  |  |  |  |  |  |  |
| C=C1CC2[C@H](C)C(=O)CCC2(C)C2=C1C1CCC(C(C)CCC(=C)C(C)C(=O)O)C1(C)CC2=O (some centres not stated) | 31.4 |  | > 100 | > 100 | > 100 | > 100 | > 100 | > 100 | > 100 |  |  |  |  |  |  |  |  |  |
| COc1ccccc1NC(=S)N/N=C/c1cccc(C)n1 | > 29.8 | > 100 | > 100 | > 100 | > 62.9 | > 100 | > 100 | > 100 | 74.7 |  |  |  |  |  |  |  |  |  |
| CC[C@@]1(O)C(=O)OCc2c1cc1n(c2=O)Cc2c-1nc1ccccc1c2/C=N\NC(=O)C(N)Cc1c[nH]c2ccccc12 (some centres not stated) | 12.1 | 17.3 | > 100 | > 100 |  | > 54.9 | > 87 | > 100 | 2.52 |  |  |  |  |  |  |  |  |  |
| O=c1[nH]c2ccc([N+](=O)[O-])cc2nc1/C=C(\O)c1ccccc1 |  |  |  | > 100 | 22.1 | 99.2 | > 100 | > 100 | 62 |  |  |  |  |  |  |  |  |  |
| NC(=O)Oc1ccccc1 | > 100 |  | > 100 | > 100 |  | > 100 |  | > 100 |  |  |  |  |  |  |  |  |  |  |
| Cc1ccccc1NC(=O)Cc1csc(N=Nc2c(O)[nH]c3ccccc23)n1 | 62.1 | > 100 | > 1 | > 100 |  |  | > 100 | > 100 | 37.6 |  |  |  |  |  |  |  |  |  |
| CN(C)CCNC(=O)c1c(O)ccc2c1c1c(n2CCc2ccccc2)C(=O)c2ccccc2C1=O | 18.1 | 11.6 | 4.57 | 34.4 | 23.1 | 28.1 | 29.5 | 19.3 | 19.2 |  |  |  |  |  |  |  |  |  |
| CCOC(=O)C(C/C=C/CO)N(C)C(=O)OC(C)(C)C (configuration not stated) | > 100 | > 100 | > 100 | > 100 | > 100 | > 100 | > 100 | > 100 | > 100 |  |  |  |  |  |  |  |  |  |
| Cc1c(O)c(=O)ccn1CCc1ccc(O)cc1 | 81.3 | 45.4 | > 100 | > 100 | > 100 | 63.4 | > 100 | > 100 | 32 |  |  |  |  |  |  |  |  |  |
| Cc1ccc(NC(=O)CC(=O)n2nc(C)c(N=Nc3cccc(C)c3)c2C)cc1 | > 100 | > 100 | > 100 | > 100 | > 100 | > 100 | > 100 | > 100 | > 100 |  |  |  |  |  |  |  |  |  |
| CN(C)CCCNC(=O)c1cn2c(ccc3sc4ccccc4c(=O)c32)n1 | 22.2 | 5.36 | 19.6 | 7.95 | 28 | 24.1 | 22.8 | 2.74 | 14.8 |  |  |  |  |  |  |  |  |  |
| COc1ccc(C2=NC(c3ccc(Cl)cc3)C(c3ccc(Cl)cc3)N2C(=O)N2CCNC(=O)C2)c(OC(C)C)c1 (configuration not stated) | > 10 | > 10 | 7.62 | > 10 | 3.38 | 3.13 | 5.54 | > 10 | 3.22 | 3.62 | 3.58 | 3.24 | 3.31 | 1.9 | 1.71 | 2.23 | 3.27 | 1.8 |
| Cc1ccc(/C=C2/N=C(N/N=C\c3ccccc3)NC2=O)cc1 |  | 48.3 | > 100 | > 100 | > 100 | > 100 | > 100 | > 100 | > 100 |  |  |  |  |  |  |  |  |  |
| CCOC(=O)C(C(=O)COC(C)(C)C)[C@@H]1C=C[C@H](OC(C)=O)C1 (some centres not stated) |  | > 100 | > 100 | > 100 | > 100 | > 100 | > 100 | > 100 | > 100 |  |  |  |  |  |  |  |  |  |
| Cc1ccc(S(=O)(=O)Nn2c(O)c(C#N)c(-c3ccc([N+](=O)[O-])cc3)c(C#N)c2=O)cc1 | > 100 |  | > 100 | > 100 | > 100 |  | > 100 | > 100 | > 100 |  |  |  |  |  |  |  |  |  |
